The assay concerns the target T1, MfpB (Mycobacterium fluoroquinolone resistance protein B) (Mycolicibacterium smegmatis, UniProt A0QSX9).
T1 sequence (A0QSX9 1-193): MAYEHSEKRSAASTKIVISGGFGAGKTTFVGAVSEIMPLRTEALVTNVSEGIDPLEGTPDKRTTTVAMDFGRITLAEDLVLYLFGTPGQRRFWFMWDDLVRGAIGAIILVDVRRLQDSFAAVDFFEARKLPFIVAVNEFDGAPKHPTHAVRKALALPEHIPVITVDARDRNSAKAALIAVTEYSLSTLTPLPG
Nature of the assay: isothermal titration calorimetry. The format is binding.

Take `Nc1nc2c(ncn2[C@@H]2O[C@H](COP(=O)(O)OP(=O)(O)OP(O)(O)=S)[C@@H](O)[C@H]2O)c(=O)[nH]1` [GTP-γ-S]: the affinity, expressed as Kd, was 11.8 ± 3.2 nM.

For `Nc1nc2c(ncn2[C@@H]2O[C@H](COP(=O)(O)OP(=O)(O)O)[C@@H](O)[C@H]2O)c(=O)[nH]1` [GDP], the Kd was determined as 10.5 ± 2.9 nM.

As a reminder, the Kd is the concentration at which binding is half-saturated.

Values taken from paper PMC3575795 (Nucleic Acids Research, 2012).
